Activity calls are given as the source filed them. The calls are words filed in the database; no cut-off is given here.
Experiments:
Format in all cases: functional
PC-3 = assay: Antiproliferative activity against human PC3 cells by SRB assay
HCT-15 = assay: Antiproliferative activity against human HCT15 cells by SRB assay
ACHN = assay: Antiproliferative activity against human ACHN cells by SRB assay
NCI-H23 = assay: Antiproliferative activity against human NCI-H23 cells by SRB assay
LOX IMVI = assay: Antiproliferative activity against human LOX-IMVI cells by SRB assay
MDA-MB-231 = assay: Antiproliferative activity against human MDA-MB-231 cells by SRB assay

SMILES	GI50 (PC-3)	GI50 (NCI-H23) [µM]	further results
C=CCN1CCC=C(CCC(=O)NO)C1=O	inactive		
O=C(CCC1=CCCN(Cc2ccccc2)C1=O)NO	> 10 µM	> 10	GI50 (HCT-15; Homo sapiens, HCT-15): > 10 µM; GI50 (ACHN): > 10 µM; GI50 (LOX IMVI): > 10 µM
O=C(CCCCCCC(=O)Nc1ccccc1)NO [VORINOSTAT]			GI50 (HCT-15): 0.82 µM; GI50 (MDA-MB-231): 0.66 µM
O=C(CCC1=CCCN(CCc2ccccc2)C1=O)NO		> 10	
COc1ccc(CN2CCC=C(CCC(=O)NO)C2=O)c(OC)c1		> 10	

From ChEMBL document CHEMBL1146044, “Synthesis, enzymatic inhibition, and cancer cell growth inhibition of novel delta-lactam-based histone deacetylase (HDAC) inhibitors” (Bioorg Med Chem Lett, 2006)
